Data taken from patent US20260294922A1, “Inhibitors of JUN N-Terminal Kinases (JNK1, JNK2, and/or JNK3) and Mitogen-Activated Protein Kinases (MAPK8, MAPK9, and/or MAPK10) and Methods of Using Same” (Baylor College of Medicine, priority 2023, published 2026).
“Also recorded” adds a separate entry of the source.

Legend:
[1] = Pharmacokinetics after oral administration in mice; assay type: in vivo; conditions: mouse, 50 mg/kg, plasma
Excerpt: Based on stability and estimated half-life of compounds exposed to liver microsome in vitro, CDD-2728 was selected for PK evaluation.

[2] = tested on: 12Z endometriotic epithelial cells; experiment: IL-1β-stimulated pro-inflammatory gene expression (qPCR) in 12Z cells; assay type: cell-based, human; conditions: relative to bentamapimod
Excerpt: These studies indicate that NanoBRET assays are an innovative technical platform to measure target engagement of CDD JNK inhibitors with the target JNK1, JNK2 or JNK3. As further evidence that JNK inhibitors address disease-relevant endpoints, biological responses of JNK inhibitors are provided herein, as measured in target tissue cellular models. 12Z immortalized endometriotic epithelial cells and patient-derived endometriotic stromal cells have been cultured with reference compound bentamapimod, CDD-2628, and CDD-2728. To exemplify the effects of CDD-2628 and CDD-2728 in the endometrial cell cultures, gene expression was measured using qPCR (expressed as fold-change relative to GAPDH, a housekeeping gene that is not affected by culture treatment effects) that reflect synthesis of inflammatory lipids (PTGS2), transformation of cells to a more migration and invasive potential (MMP-3) and chemoattractant cytokines to recruit pro-inflammatory immune cells (IL-6, IL-8).
In the culture systems employed in FIGS. 12A-12J, FIGS. 13A-13B, FIGS. 14A-14H, FIGS. 15A-15H, and FIGS. 16A-16F, the treatment of cells with IL-1β is used to mimic the peritoneal environment where IL-1β is most frequently measured at higher concentrations in patients with endometriosis (0.1 ng/mL-1 ng/mL) than in unaffected women (<0.01 ng/mL). The use of IL-1β to mimic the pro-inflammatory environment is a common method in cellular assays for endometriosis research. Although the concentrations of IL-1β in these cell cultures are higher than measured in peritoneal fluid, there are multiple other pro-inflammatory cytokines in peritoneal fluid that contribute to the pro-inflammatory environment.
Specifically, 12Z cells were plated at a density of 1×10^5 cells/well in a 12-well tissue culture plate, serum-starved overnight (17-18 h), pre-treated with vehicle (DMSO) or JNK inhibitor for 30 minutes, then stimulated with 10 ng/ml IL-1β in the presence or absence of the JNK inhibitors for 6 hours. After the 6-hour treatment, mRNA was extracted from the cells using the Qiagen RNEasy mini isolation kit and […] of mRNA was reverse transcribed into cDNA using the qScript cDNA Supermix (Quanta Biosciences). cDNA was amplified using SYBR Green Master Mix (Applied Biosystems) with quantitative Real Time PCR (BioRad CFX) using pre-designed and validated primers specific for genes encoding IL6, IL8, PTGS2/COX2, and MMP3 (BioRad). Relative quantification of these specific genes was calculated by the ΔΔCt method, normalizing their abundance relative to the internal housekeeping gene, GAPDH, followed by quantification relative to the vehicle-treated cells. Statistical analyses and visualizations were performed using a One Way ANOVA with a Tukey's multiple comparison post-hoc test on GraphPad Prism version 9.

[3] = tested on: primary human endometriotic stromal cells (patient 50); experiment: IL-1β-stimulated pro-inflammatory gene expression in primary endometriotic stromal cells, patient 50; assay type: cell-based; conditions: patient 50, relative to CDD-939
Excerpt: FIGS. 14G-14H represent responses of primary human endometriotic stromal cells [from the endometrioma lesion] from endometriosis patient “50”.
FIGS. 15A-15H provide replicate results of the response of primary human endometriotic stromal cells (derived from the lesions) obtained from endometriosis patient “50”. In each example. […] In each example, CDD-2728 inhibited IL-1β-stimulated pro-inflammatory biomarker responses in primary endometriotic stromal cell cultures. Lower concentrations of JNK inhibitors were required to reduce the proinflammatory response of IL-1β in stromal cells than the concentration of JNK-I in 12Z epithelial cells.
Another target tissue of JNK inhibitors in the treatment of endometriosis are endometriotic stromal cells. To further exemplify the relevance of the discoveries of novel JNK inhibitors for endometriosis, stromal cells obtained from the endometriotic lesions of a patient with endometriosis have been cultured. The compliant identifier for this patient is Eosis50. These cells represent stromal cells from an ovarian endometrioma. Similar to culture system described elsewhere herein, the inflammatory environment of peritoneal endometriosis was simulated by the addition of IL-1β and increasing concentrations of either bentamapimod or CDD-2728 were added to these stromal cell cultures. […]

12Z cells = experiment: Phosphorylation of Jun and JNK in IL-1β-treated 12Z cells; assay type: cell-based, human
HepG2 cells = experiment: HepG2 cell viability (ATP consumption); conditions: CDD-2575 25 μM; CDD-2728, CDD-2624 up to 75
Experimental: This assay reflects cell viability. […] To determine if the responses observed in endometriotic epithelial cells and endometriotic stromal cell cultures were cytotoxic, cell viability was performed in HepG2 cells.

AUC(0-inf) [1]: 3.03 ± 0.98 µM·h
AUC(0-t) [1]: 2.95 ± 0.95 µM·h
CL/F [1]: 650 mL/min/kg
Cmax [1]: 1510 ± 530 nM
Tmax [1]: 0.63 ± 0.25 h
half-life [1]: 1.48 ± 0.32 h
MRT last ([1]; read-out: MRT0-t): 1.7 ± 0.34 h
MRT inf ([1]; read-out: MRT0-∞): 1.91 ± 0.44 h
SMILES: CN(C)C(=O)c1cc(NC(=O)c2cc3c(-c4cnc5[nH]ccc5c4)cccc3s2)ccc1O [CDD-2728, N-(3-(dimethylcarbamoyl)-4-hydroxyphenyl)-4-(1H-pyrrolo[2,3-b]pyridin-5-yl)benzo[b]thiophene-2-carboxamide]
IL-6 expression [2]: equally effective
IL-8 expression [2]: more potent inhibitors of IL-8 expression than bentamapimod; also recorded: effectively suppressed IL-8 production
MMP-3 expression [2]: more potent than CDD-939 at inhibiting MMP-3 expression; also recorded: more effective than bentamapimod
PTGS2 expression [2]: more effective than bentamapimod
inhibition of IL-6, IL-8, MMP-3 and PTGS2 gene expression [3]: effective inhibitor of IL-6 gene expression; also recorded: more effective inhibitor of the biomarkers IL-8, MMP-3, and PTGS2 gene expression than CDD-939; also recorded: superior efficacy and potency
phosphorylation of JNK1 or JNK2 (12Z cells): undetectable changes
phosphorylation of Jun relative to total Jun (12Z cells; relative to bentamapimod): superior efficacy
effect on HepG2 cell viability / ATP consumption (HepG2 cells): tolerated (up to 75 μM); also recorded: neither CDD-2624 or CDD-2728 had significant effects on ATP consumption
